Assays:
[1] = test system: rat primary hippocampal neurons; assay: Neurotoxic effect of Aβ1-42 oligomers, MTT viability assay; type: cell-based; conditions: 20 hr
Procedure: Amylospheroids (ASPDs) and Aβ monomers were prepared following Hoshi, M., et al. (2003) Proc Natl Acad Sci USA 100, 6370-6375, and Noguchi, A., et al. (2009) J Biol Chem 284, 32895-32905. Briefly, Aβ1-42 was dissolved in 1,1,1,3,3,3-hexafluoro-2-propanol and incubated overnight at 4° C. and then 3 hr at 37° C. The dissolved Aβ1-42 was then lyophilized in 1.5 ml polypropylene centrifuge tubes at 40 nmol/tube concentration. For preparing the ASPDs, the lyophilized Aβ was dissolved in phosphate buffered saline (PBS) without Ca^2+ or Mg^2+ at less than 50 μM concentration and rotated for 14 hr at 4° C. After incubation, the Aβ solution was purified using a 100 kDa molecular mass cutoff filter (Amicon Ultra, Millipore) and the high-molecular weight fraction was saved to obtain the most toxic ASPDs. Aβ derived diffusible ligands (ADDLs) were produced as previously described. See Lambert, M. P et al., Proc. Natl. Acad. Sci. USA, 1998, 95: 6448-6453. Briefly, Aβ1-42 was solubilized at 5 mM in dimethyl sulfoxide, diluted to 100 μM in F12k medium and was incubated at 4° C. for 24 hr. The solution was centrifuged at 14000×g for 10 min at 4° C. and the supernatant was used as the ADDLs.
Viability of cells was measured by MTT assay. MTT (i.e., 3-(4,5-dimethylthiazol-2-yl)-2,5-diphenyltetrazolium bromide) is a tetrazolium salt that is cleaved to formazan by the succinate dehydrogenase, which is only active in viable cells. After solubilization of the formazan, the amount of dye can be quantified with a microplate reader at 570 nm along with a reference of 630 nm. For the MTT assay, 5×10^4 primary rat hippocampal neurons from 18-day-old embryonic Sprague-Dawley rat brains or SH-SY5Y cells were plated on each well of 24-well plates coated with poly-D-lysine. After treatment, the cells were washed with 1× PBS and were incubated with 200 μl of 1 mg/ml MTT solution (Sigma, USA) at 37° C. for 2 hr. Then the MTT-solution was removed and the cells were lysed with 200 μl isopropanol containing 0.04 M HCl and […] for 10 min. Finally, the reading was taken at 570 nm and 630 nm. All the samples were done in triplicate and the data were represented as the percentage of control.
To assess the neurotoxic effect of different sized oligomers, rat primary hippocampal neurons were treated with variable concentrations of these Aβ1-42 species for 20 hr. Viability of the treated cells was compared to untreated cells using the MTT assay described above.

PKC-ε = target: T1, PKC-ε (Homo sapiens, UniProt Q02156); assay: PKC activation assay with purified PKC-ε isozyme (32P-phosphoprotein formation); type: biochemical; conditions: for Emax: % of control of PKCε at maximum; for EC50: lowest concentration that activates by 50% of maximum activation; for Specificity ε/α: Activation of PKC-ε ÷ activation or inhibition of PKCα at 3xEC50
T1 sequence (Q02156 1-737): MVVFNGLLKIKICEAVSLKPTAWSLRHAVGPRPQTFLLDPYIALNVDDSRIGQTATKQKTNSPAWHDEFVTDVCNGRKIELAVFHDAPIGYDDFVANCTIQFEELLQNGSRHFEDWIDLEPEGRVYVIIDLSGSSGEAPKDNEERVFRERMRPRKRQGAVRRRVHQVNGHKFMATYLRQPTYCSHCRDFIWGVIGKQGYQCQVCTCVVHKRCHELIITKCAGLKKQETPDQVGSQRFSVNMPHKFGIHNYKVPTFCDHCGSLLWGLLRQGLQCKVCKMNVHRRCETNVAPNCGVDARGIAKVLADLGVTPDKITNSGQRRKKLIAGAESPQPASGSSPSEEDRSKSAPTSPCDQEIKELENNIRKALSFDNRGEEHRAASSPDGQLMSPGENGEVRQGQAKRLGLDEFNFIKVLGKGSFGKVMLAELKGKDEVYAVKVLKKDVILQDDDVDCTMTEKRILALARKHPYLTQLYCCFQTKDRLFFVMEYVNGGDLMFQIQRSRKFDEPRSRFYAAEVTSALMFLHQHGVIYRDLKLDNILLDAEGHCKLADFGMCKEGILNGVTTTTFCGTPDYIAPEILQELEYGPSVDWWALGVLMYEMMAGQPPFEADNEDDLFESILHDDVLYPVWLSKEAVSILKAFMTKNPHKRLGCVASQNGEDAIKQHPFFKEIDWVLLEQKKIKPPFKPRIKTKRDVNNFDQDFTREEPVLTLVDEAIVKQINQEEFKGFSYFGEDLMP
Procedure: For measurement of PKC activation by DCPLA-ME, activation of recombinant PKC-α, PKC-ε, and PKC-δ was evaluated. DCPLA-ME induced activation was measured in the absence of diacylglycerol (DAG) and phosphatidylserine (PS) as described earlier. See Nelson, T. J. et al., J. Biol. Chem., 2009, 284: 34514-34521, and Kanno, T. et al., J. Cell Physiol., 2009, 221: 183-188. Individual enzymes were incubated for 15 min at 37° C. in the presence of 10 μM histones, 4.89 mM CaCl2, 10 mM MgCl2, 20 mM HEPES (pH 7.4), 0.8 mM EDTA, 4 mM EGTA, 4% glycerol, 8 μg/ml aprotinin, 8 μg/ml leupeptin, 2 mM benzamidine, and 0.5 μCi of [γ-^32P]ATP. Purified PKC-α, PKC-ε and PKC-δ were preincubated with DCPLA-ME for 5 min at room temperature. [^32P]-Phosphoprotein formation was measured by adsorption onto phosphocellulose.
To measure PKC, 10 μl of cell homogenate or purified PKC isozyme was incubated for 15 min at 37° C. in the presence of 10 μM histones, 4.89 mM CaCl2, 1.2 μg/μl phosphatidyl-L-serine, 0.18 μg/μl 1,2-dioctanoyl-sn-glycerol, 10 mM MgCl2, 20 mM HEPES (pH 7.4), 0.8 mM EDTA, 4 mM EGTA, 4% glycerol, 8 μg/ml aprotinin, 8 μg/ml leupeptin, and 2 mM benzamidine. [γ32P]ATP (0.5 μCi) was added and 32P-phosphoprotein formation was measured by adsorption onto phosphocellulose as described previously. See Nelson et al., J. Neurochemistry, 1995, 65: 2350-2357.
PKC activity of each compound was measured in the absence of diacylglycerol and phosphatidyl-L-serine and PKC-δ and PKC-ε were measured in the absence of added EGTA and CaCl2, as described by Kanno et al., J. Lipid Res., 2006, 47: 1146-1156. Low concentrations of Ca^2+ are needed because high Ca^2+ interacts with the PKC phosphatidylserine binding site and prevents activation. […] To determine their PKC isozyme specificity, the compounds were pre-incubated with purified isoforms of PKC for five minutes and the PKC activity was measured radiometrically.
The activation and PKC isozyme specificity of DCPLA-ethyl ester was measured following the procedures in Example 1(B) and (C), except that 9 ng of the purified isozyme was used and it was pre-incubated for 5 minutes at room temperature (FIG. 3). PKC-ε activation by DCPLA-tert-butyl ester and DCPLA-retinyl ester was measured in the same manner as DCPLA-ethyl ester (FIG. 3).
The EC50 values, PKC specificity, and activation for a select number of DCPLA esters was determined (see Table 1). EC50 values were determined by measuring the lowest concentration that activates by 50% of maximum activation. […] The specificity and activation of PKC by the various esters of DCPLA were determined from the measurements of activation of PKC isozymes.

[2] = test system: Phosphatidylserine (C2) Binding Site; assay: 3H-DCPLA-ME binding to rat brain slices with C1 and C2 competitors (film-autoradiography); conditions: rat brain slices
Procedure: To determine the binding site of DCPLA-ME, ^3H-DCPLA-ME was incubated with rat brain slices in the absence and presence of known C1 and C2 competitors. More specifically, rat brain sections were fixed with formaldehyde, sliced, and incubated with (1)^3H-DCPLA-ME alone; (2)^3H-DCPLA-ME with DCPLA; (3)^3H-DCPLA-ME with Phorbol ester; or (4)^3H-DCPLA-ME and Bryostatin 1. After incubation, the slices were washed with a buffer made of 130 mM NaCl, 5 mM MgCl, 5 mM KCl, 1 mM EGTA, and 0.1% bovine serum albumin in 10 mM HEPES-NaOH, pH 7.4, dried, and analyzed with film-autoradiography.

Emax (PKC-ε) [%]	EC50 (PKC-ε) [nM]	Specificity ε/α (PKC-ε)	Compound	further results
–	–	–	oAβ < 100 kDa: filtrate from the 100 kDa filtration of ASPD preparation, 12 monomers on average	Viability of primary neuron ([1]; 50 nM): 76.41 ± 5.54 % of control; Viability of primary neuron ([1]; 50 nM, listed as OAβ<100 kDa filtrate): significantly cytotoxic; Viability of primary neuron ([1]; 500 nM): 62.94 ± 9.53 % of control; Viability of primary neuron ([1]; 1000 nM (1 μM)): 53.52 ± 2.43 % of control
130	1	–	CCCCCC1CC1CC1CC1CCCCCCCC(=O)OC(C)(C)C (stereo not shown) [DCPLA-t-butyl ester, DCPLA-tert-butyl ester]	form of activity vs. concentration response (PKC-ε): bimodal activation
–	–	–	CCCC(=O)O[C@@H]1[C@@H](C)[C@@]2(O)[C@@H](C=C(CO)C[C@]3(O)C(=O)C(C)=C[C@@H]23)[C@@H]2C(C)(C)[C@]12OC(=O)CCC [Phorbol ester (PdBu)]	3H-DCPLA-ME binding, 30 nM competitor [2]: 100%; 3H-DCPLA-ME binding, 1 μM competitor [2]: 81%
140	3	8.1	CCCCCCCCC1CC1CCCCCCCCOC(=O)CCCCCCCC1CC1CC1CC1CCCCC (stereo not shown) [DCPLA-cyclopropanated oleyl ester]	concentration of maximal activation (PKC-ε; FIG. 2, FIG. 4): 10 nM; PKC isozyme specificity (PKC-ε; PKC-ε vs PKC-α and PKC-δ): relatively specific for PKC-ε; PKC-ε activation at its peak (PKC-ε; maximum, FIG. 1, 2, 4): 140 % of control
300	1000	7.4	CCCCCC1CC1CC1CC1CCCCCCCC(=O)O (stereo not shown) [DCPLA, 8-[2-(2-pentylcyclopropylmethyl)-cyclopropyl]-octanoic acid]	3H-DCPLA-ME binding, 30 nM competitor [2]: 86%; 3H-DCPLA-ME binding, 1 μM competitor [2]: 35%
129	10	–	CCCCCC1CC1CC1CC1CCCCCCCC(=O)OC/C=C(C)/C=C/C=C(C)/C=C/C1=C(C)CCCC1(C)C (stereo not shown) [DCPLA-retinyl ester]	–
126	3	4.2	CCCCCC1CC1CC1CC1CCCCCCCC(=O)OCC (stereo not shown) [DCPLA-ethyl ester]	–
